Read-outs that look alike come from different tables or passages of the source.
Key:
CD69 expression = tested on: CD69 expression; set-up: method as in PMID 27583770; conditions: in vitro; read-out: IC50 of CD69 inhibition derived from in vitro evaluation; cited from earlier work
[1] = Plasma pharmacokinetics of BMS-986142, SAD; assay type: in vivo; conditions: human, oral; for AUC(0-t): n = 6, read-out: AUC(0-T) geometric mean (%CV); for Cmax: n = 6, read-out: Cmax geometric mean (%CV)
Procedure: Eligible participants were confined to the clinical facility (WCCT Global, LLC, Cypress, CA) the day before dosing (day −1) and randomized to receive SAD or MAD treatment under fasting conditions for 10 h. In the SAD group, eight healthy non-Japanese participants were assigned to each of up to six sequential dose panels (single oral doses of 5, 15, 50, 100, 300, and 900 mg BMS-986142) or placebo. Within each dose panel, participants were randomized in a 3:1 ratio to receive BMS-986142 (n = 6) or placebo (n = 2). In the MAD group, eight healthy non-Japanese participants were assigned to each of four sequential dose panels (daily oral doses of 25, 75, 200, and 350 mg BMS-986142) or placebo. Within each dose panel, participants were randomized in a 3:1 ratio to receive once-daily (QD) doses of BMS-986142 or placebo from day 1 to day 14 (Online Resource 1). Escalation to the next dose level in SAD and MAD was conducted after safety assessment had been completed and the treatment was considered safe and well tolerated. Additionally, dose levels in MAD were selected not to exceed the steady-state exposure of BMS-986142 (AUC: 22,920 ng h/mL) at NOAEL in rats obtained from a 1-month GLP toxicology study.
Blood samples for the measurement of BMS-986142 were collected up to 168 h after dosing of BMS-986142 on day 1 for participants in SAD. In MAD, blood samples were collected up to 24 h on day 1 and up to 120 h on day 14 (the last day of treatment). Blood samples for the measurement of MTX were collected up to 48 h after dosing of MTX on days 1 and 8.
Plasma samples were analyzed for BMS-986142 levels with a validated method using liquid chromatography tandem mass spectrometry (LC-MS/MS) detection. The analyte was extracted from 50 μL of plasma using a liquid–liquid extraction method. Methyl tert-butyl ether was used as the extraction solvent. The lower limit of quantification (LLOQ) was 1.00 ng/mL in plasma. Plasma samples were analyzed for methotrexate levels using LC-MS/MS detection. Analytes were isolated from 50 μL plasma through solid phase extraction using Waters Oasis MAX, 10-mg, 96-well SPE plates. The final extract was analyzed using LC-MS/MS detection. LLOQ was 1.00 ng/mL in plasma. Detailed methodology quantitating the concentration level of BMS-986142 and MTX is provided in Online Resource 10.
Individual subject pharmacokinetic parameters for BMS-986142 and MTX were derived by a non-compartmental method using validated PK software (WinNonLin version 6.3; Pharsight Corporation, Mountain View, CA, USA). The following PK parameters for BMS-986142 and MTX were derived from plasma concentration versus time data: maximum observed plasma concentration (Cmax); minimum observed plasma concentration (Cmin); time to maximum observed plasma concentration (Tmax); area under the plasma concentration-time curve from time zero to the time of the last quantifiable concentration (AUC(0-T)), from time zero extrapolated to infinite time (AUC(inf)), and in one dosing interval (AUC(TAU)); terminal plasma half-life (T1/2); and AUC accumulation index (AI_AUC). AI_AUC was calculated to divide AUC(TAU) on day 14 by AUC(TAU) on day 1.
Summary statistics were tabulated for all PK parameters by treatment and study days. Geometric mean (Gmean) and coefficient of variation (CV) are presented for Cmax, AUC(0-T), AUC(inf), AI_AUC, Cmin, and AUC(TAU); arithmetic mean and standard deviation (SD) are presented for T1/2; and median and range are presented for Tmax. Dose proportionality was assessed using the previously described power model. Briefly, the simple linear regression was applied to the natural log of the PK parameters on the natural log of dose using the following equation (Eq. 1).1 ElogPKParameterDose=α+β∗logDose.
A slope (β) equal to 1 would indicate perfect dose proportionality. For each PK parameter (Cmax, AUC(0-T), AUC(TAU), and AUC(inf)), point estimates and 90% CI of the slopes were calculated.

Cc1c(-c2c(F)cc(C(N)=O)c3[nH]c4c(c23)CC[C@H](C(C)(C)O)C4)cccc1-n1c(=O)c2cccc(F)c2n(C)c1=O [BMS-986142, 6-fluoro-5-(R)-(3-(S)-(8-fluoro-1-methyl-2,4-dioxo-1,2-dihydroquinazolin-3(4H)-yl)-2-methylphenyl)-2-(S)-(2-hydroxypropan-2-yl)-2,3,4,9-tetrahydro-1H-carbazole-8-carboxamide]
IC50 (CD69 expression): 90 nM
half-life ([1]; both sexes, 5 mg, at low dose levels, read-out: T1/2 (converted)): ~7 h
half-life ([1]; both sexes, at therapeutic doses, read-out: Mean T1/2): ≤ 11 h
half-life ([1]; both sexes, single dose, 5–900 mg dose range, read-out: Mean T1/2 (half-life), range over doses): 7 to 11 h
Tmax ([1]; both sexes, single dose, 5–900 mg dose range, read-out: Median Tmax (time of peak concentrations)): ≤ 2 h
half-life ([1]; 5 mg, SAD day 1, 5 mg, n = 5, read-out: T1/2 mean (SD) (converted)): 6.87 h
half-life ([1]; 15 mg, SAD day 1, 15 mg, n = 6, read-out: T1/2 mean (SD) (converted)): 8.02 h
half-life ([1]; 50 mg, SAD day 1, 50 mg, n = 6, read-out: T1/2 mean (SD) (converted)): 9.7 h
half-life ([1]; 100 mg, SAD day 1, 100 mg, n = 6, read-out: T1/2 mean (SD) (converted)): 10.3 h
half-life ([1]; 300 mg, SAD day 1, 300 mg, n = 6, read-out: T1/2 mean (SD) (converted)): 10.6 h
half-life ([1]; 900 mg, SAD day 1, 900 mg, n = 6, read-out: T1/2 mean (SD) (converted)): 10.7 h
AUC(0-inf) ([1]; SAD day 1, 5 mg, n = 5, read-out: AUC(inf) geometric mean (%CV)): 102 ng·h/mL
AUC(0-t) ([1]; SAD day 1, 5 mg): 83.1 ng·h/mL
Cmax ([1]; SAD day 1, 5 mg): 9.03 ng/mL
Tmax ([1]; SAD day 1, 5 mg, n = 6, read-out: Tmax median (min, max)): 2.03 h
AUC(0-t) ([1]; SAD day 1, 15 mg): 369 ng·h/mL
AUC(0-inf) ([1]; SAD day 1, 15 mg, n = 6, read-out: AUC(inf) geometric mean (%CV)): 388 ng·h/mL
Cmax ([1]; SAD day 1, 15 mg): 36.9 ng/mL
Tmax ([1]; SAD day 1, 15 mg, n = 6, read-out: Tmax median (min, max)): 2 h
AUC(0-t) ([1]; SAD day 1, 50 mg): 1560 ng·h/mL
AUC(0-inf) ([1]; SAD day 1, 50 mg, n = 6, read-out: AUC(inf) geometric mean (%CV)): 1590 ng·h/mL
Cmax ([1]; SAD day 1, 50 mg): 185 ng/mL
Tmax ([1]; SAD day 1, 50 mg, n = 6, read-out: Tmax median (min, max)): 1 h
AUC(0-t) ([1]; SAD day 1, 100 mg): 3000 ng·h/mL
AUC(0-inf) ([1]; SAD day 1, 100 mg, n = 6, read-out: AUC(inf) geometric mean (%CV)): 3020 ng·h/mL
Cmax ([1]; SAD day 1, 100 mg): 311 ng/mL
Tmax ([1]; SAD day 1, 100 mg, n = 6, read-out: Tmax median (min, max)): 1.5 h
AUC(0-t) ([1]; SAD day 1, 300 mg): 11300 ng·h/mL
AUC(0-inf) ([1]; SAD day 1, 300 mg, n = 6, read-out: AUC(inf) geometric mean (%CV)): 11400 ng·h/mL
Cmax ([1]; SAD day 1, 300 mg): 1080 ng/mL
Tmax ([1]; SAD day 1, 300 mg, n = 6, read-out: Tmax median (min, max)): 1.02 h
AUC(0-t) ([1]; SAD day 1, 900 mg): 28000 ng·h/mL
AUC(0-inf) ([1]; SAD day 1, 900 mg, n = 6, read-out: AUC(inf) geometric mean (%CV)): 28100 ng·h/mL
Cmax ([1]; SAD day 1, 900 mg): 1880 ng/mL
Tmax ([1]; SAD day 1, 900 mg, n = 6, read-out: Tmax median (min, max)): 2 h
